Test results reported in ChEMBL document CHEMBL5321219, “Selective degradation of cellular BRD3 and BRD4-L promoted by PROTAC molecules in six cancer cell lines” (Eur J Med Chem, 2023).
Activity calls are given as the source filed them. The rule behind the calls is not given here.

What was measured:
[1] = molecular target: T1, Protein cereblon/Bromodomain-containing protein 4 (Homo sapiens) (UniProt O60885+Q96SW2); test: PROTAC activity at CRBN/BRD4-S in human HeLa cells assessed as induction of protein degradation at 1 to 300 nM measured after 24 hrs by Western blot analysis; format: cell-based; settings: dose 1-300 nM
[2] = molecular target: T2, Protein cereblon/Bromodomain-containing protein 3 (Homo sapiens) (UniProt Q15059+Q96SW2); test: PROTAC activity at CRBN/BRD3 in human MM1.S cells assessed as induction of protein degradation at 2 nM measured after 24 hrs by Western blot analysis; format: cell-based
MM1.S [3] = test: Induction of cell cycle arrest in human MM1.S cells assessed as accumulation of cells at S phase at 10 nM incubated for 24 hrs by flow cytometry analysis (reference value: 22.37%); format: functional
HepG2 = test: Antiproliferative activity against human HepG2 cells assessed as cell growth inhibition measured after 4 days by CCK-8 assay; format: functional, cell-based; settings: HepG2, 96 h
[4] = molecular target: T2, Protein cereblon/Bromodomain-containing protein 3 (Homo sapiens); test: PROTAC activity at CRBN/BRD3 in human MCF7 cells assessed as induction of protein degradation measured after 24 hrs by Western blot analysis; format: cell-based; settings: dose 1-300 nM
[5] = molecular target: T1, Protein cereblon/Bromodomain-containing protein 4 (Homo sapiens); test: PROTAC activity at CRBN/BRD4-L in human U-937 cells assessed as induction of protein degradation by Western blot analysis; format: cell-based
[6] = molecular target: T1, Protein cereblon/Bromodomain-containing protein 4 (Homo sapiens); test: PROTAC activity at CRBN/BRD4-L in human MM1.S cells assessed as induction of protein degradation at 30 nM by Western blot analysis; format: cell-based; settings: TDE = time-dependent effect
[7] = molecular target: T2, Protein cereblon/Bromodomain-containing protein 3 (Homo sapiens); test: PROTAC activity at CRBN/BRD3 in human MV4-11 cells assessed as induction of protein degradation at 0.1 to 10 nM measured after 24 hrs by Western blot analysis; format: cell-based; settings: dose 0.1-10 nM
[8] = molecular target: T1, Protein cereblon/Bromodomain-containing protein 4 (Homo sapiens); test: PROTAC activity at CRBN/BRD4-L in human MCF7 cells assessed as induction of protein degradation at 30 nM measured after 3 to 6 hrs by Western blot analysis; format: cell-based; settings: time 3-6 hrs
[9] = molecular target: T1, Protein cereblon/Bromodomain-containing protein 4 (Homo sapiens); test: PROTAC activity at CRBN/BRD4-L in human HeLa cells assessed as induction of protein degradation measured after 24 hrs by Western blot analysis; format: cell-based; settings: dose 1-300 nM
MM1.S [10] = test: Induction of cell cycle arrest in human MM1.S cells assessed as accumulation of cells at S phase at 30 nM incubated for 24 hrs by flow cytometry analysis (reference value: 22.37%); format: functional
[11] = molecular target: T2, Protein cereblon/Bromodomain-containing protein 3 (Homo sapiens); test: PROTAC activity at CRBN/BRD3 in human MCF7 cells assessed as induction of protein degradation at 30 nM by Western blot analysis; format: cell-based; settings: time 1-3 hrs, TDE = time-dependent effect
MV4-11 = test: Antiproliferative activity against human MV4-11 cells assessed as cell growth inhibition measured after 3 days by CellTitre-Glo assay; format: functional, cell-based; settings: MV4-11, 72 h
HeLa = test: Antiproliferative activity against human HeLa cells assessed as cell growth inhibition measured after 4 days by CCK-8 assay; format: functional, cell-based; settings: 96 h
[12] = molecular target: T2, Protein cereblon/Bromodomain-containing protein 3 (Homo sapiens); test: PROTAC activity at CRBN/BRD3 in human HGC-27 cells assessed as induction of protein degradation at 30 nM measured after 8 to 24 hrs by Western blot analysis; format: cell-based; settings: time 8-24 hrs
MM1.S [13] = test: Induction of cell cycle arrest in human MM1.S cells assessed as accumulation of cells at S phase at 1 nM incubated for 24 hrs by flow cytometry analysis (reference value: 22.37%); format: functional
MM1.S [14] = test: Downregulation of p21 protein expression in human MM1.S cells at 0.1 to 30 nM measured after 24 hrs by Western blot analysis; format: functional, cell-based; settings: dose 0.1-30 nM
[15] = molecular target: T1, Protein cereblon/Bromodomain-containing protein 4 (Homo sapiens); test: PROTAC activity at CRBN/BRD4-S in human MV4-11 cells assessed as induction of protein degradation at 0.1 to 30 nM measured after 24 hrs by Western blot analysis; format: cell-based; settings: dose 0.1-30 nM
MCF7 = test: Antiproliferative activity against human MCF7 cells assessed as cell growth inhibition measured after 4 days by CCK-8 assay; format: functional, cell-based; settings: MCF7, 96 h
MM1.S [16] = test: Induction of cell cycle arrest in human MM1.S cells assessed as accumulation of cells at S phase at 100 nM incubated for 24 hrs by flow cytometry analysis (reference value: 22.37%); format: functional
[17] = molecular target: T1, Protein cereblon/Bromodomain-containing protein 4 (Homo sapiens); test: PROTAC activity at CRBN/BRD4-S in human A549 cells assessed as induction of protein degradation at 3 to 1000 nM measured after 24 hrs by Western blot analysis; format: cell-based; settings: dose 3-1000 nM
MM1.S [18] = test: Induction of cell cycle arrest in human MM1.S cells assessed as accumulation of cells at G1 phase at 100 nM incubated for 24 hrs by flow cytometry analysis (reference value: 56.32%); format: functional
[19] = molecular target: T2, Protein cereblon/Bromodomain-containing protein 3 (Homo sapiens); test: PROTAC activity at CRBN/BRD3 in human MM1.S cells assessed as induction of protein degradation at 30 nM pretreated with 0.2 to 10 uM MG132 for 2 hrs followed by compound addition and measured after 4 hrs by Western blot analysis; format: cell-based
[20] = molecular target: T3, Bromodomain-containing protein 3 (Homo sapiens, UniProt Q15059); test: Binding affinity to recombinant human BRD3 BD2 (306 to 417 residues) assessed as inhibition constant by fluorescence polarization binding assay
[21] = molecular target: T2, Protein cereblon/Bromodomain-containing protein 3 (Homo sapiens); test: PROTAC activity at CRBN/BRD3 in human HeLa cells assessed as induction of protein degradation measured after 24 hrs by Western blot analysis; format: cell-based; settings: dose 1-300 nM
[22] = molecular target: T2, Protein cereblon/Bromodomain-containing protein 3 (Homo sapiens); test: PROTAC activity at CRBN/BRD3 in human HGC-27 cells assessed as induction of protein degradation measured after 24 hrs by Western blot analysis; format: cell-based; settings: dose 0.1-30 nM
MM1.S [23] = test: Induction of cell cycle arrest in human MM1.S cells assessed as accumulation of cells at G2 phase at 3 nM incubated for 24 hrs by flow cytometry analysis (reference value: 14.68%); format: functional
[24] = molecular target: T3, Bromodomain-containing protein 3; test: Binding affinity to recombinant human BRD3 BD1 (24 to 144 residues) assessed as inhibition constant by fluorescence polarization binding assay
[25] = molecular target: Protein cereblon/Bromodomain-containing protein 2 (Homo sapiens) (UniProt P25440+Q96SW2); test: PROTAC activity at CRBN/BRD2 in human HeLa cells assessed as induction of protein degradation at 1 to 300 nM measured after 24 hrs by Western blot analysis; format: cell-based; settings: dose 1-300 nM
[26] = molecular target: T2, Protein cereblon/Bromodomain-containing protein 3 (Homo sapiens); test: PROTAC activity at CRBN/BRD3 in human U-937 cells assessed as induction of protein degradation by Western blot analysis; format: cell-based
[27] = molecular target: T1, Protein cereblon/Bromodomain-containing protein 4 (Homo sapiens); test: PROTAC activity at CRBN/BRD4-L in human MM1.S cells assessed as induction of protein degradation measured after 24 hrs by Western blot analysis; format: cell-based
MM1.S [28] = test: Downregulation of BRD2 expression in human MM1.S cells by proteomic analysis; format: functional, cell-based
MM1.S [29] = test: Induction of cell cycle arrest in human MM1.S cells assessed as accumulation of cells at G2 phase at 10 nM incubated for 24 hrs by flow cytometry analysis (reference value: 14.68%); format: functional
MM1.S [30] = test: Downregulation of BRD3 expression in human MM1.S cells by proteomic analysis; format: functional, cell-based
[31] = molecular target: T2, Protein cereblon/Bromodomain-containing protein 3 (Homo sapiens); test: PROTAC activity at CRBN/BRD3 in human MCF7 cells assessed as induction of protein degradation at 30 nM measured after 3 to 6 hrs by Western blot analysis; format: cell-based; settings: time 3-6 hrs

T2 sequence (Q15059 2-726 limits assumed): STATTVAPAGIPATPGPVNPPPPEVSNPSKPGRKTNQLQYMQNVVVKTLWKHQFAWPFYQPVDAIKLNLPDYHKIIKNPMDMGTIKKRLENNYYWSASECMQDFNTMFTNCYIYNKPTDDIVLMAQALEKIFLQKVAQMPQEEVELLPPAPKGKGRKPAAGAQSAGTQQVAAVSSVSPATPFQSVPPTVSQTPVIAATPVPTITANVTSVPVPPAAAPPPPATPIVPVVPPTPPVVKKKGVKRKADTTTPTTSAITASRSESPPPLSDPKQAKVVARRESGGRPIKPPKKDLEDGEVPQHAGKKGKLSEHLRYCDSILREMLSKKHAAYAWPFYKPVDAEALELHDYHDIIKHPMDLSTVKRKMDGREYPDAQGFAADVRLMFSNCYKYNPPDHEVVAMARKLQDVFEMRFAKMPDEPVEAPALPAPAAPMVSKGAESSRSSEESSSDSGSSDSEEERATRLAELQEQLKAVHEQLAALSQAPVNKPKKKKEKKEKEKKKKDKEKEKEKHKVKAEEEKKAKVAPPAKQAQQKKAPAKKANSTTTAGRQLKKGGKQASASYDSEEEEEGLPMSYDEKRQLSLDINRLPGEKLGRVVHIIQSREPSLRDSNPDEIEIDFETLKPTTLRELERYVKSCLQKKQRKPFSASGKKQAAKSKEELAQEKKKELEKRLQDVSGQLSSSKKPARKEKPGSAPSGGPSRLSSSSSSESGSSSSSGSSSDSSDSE
T2 sequence (Q96SW2 whole entry partner): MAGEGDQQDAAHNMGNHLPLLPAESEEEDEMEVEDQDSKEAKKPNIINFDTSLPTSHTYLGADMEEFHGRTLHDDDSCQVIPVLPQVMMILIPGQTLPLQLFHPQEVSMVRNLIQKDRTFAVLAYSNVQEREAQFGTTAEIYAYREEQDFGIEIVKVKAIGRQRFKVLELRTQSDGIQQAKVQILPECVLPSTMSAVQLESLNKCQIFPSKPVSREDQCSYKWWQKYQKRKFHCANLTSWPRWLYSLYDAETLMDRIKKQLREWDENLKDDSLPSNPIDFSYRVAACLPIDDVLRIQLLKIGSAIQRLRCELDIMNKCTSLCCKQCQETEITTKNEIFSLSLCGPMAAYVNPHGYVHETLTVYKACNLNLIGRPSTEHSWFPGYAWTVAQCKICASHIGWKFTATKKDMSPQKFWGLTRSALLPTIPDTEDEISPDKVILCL
T1 sequence (Q96SW2 whole entry, looked up, other chains not shown): as the sequence (Q96SW2 whole entry partner) above
T3 sequence (Q15059 whole entry, the tested form may be a part): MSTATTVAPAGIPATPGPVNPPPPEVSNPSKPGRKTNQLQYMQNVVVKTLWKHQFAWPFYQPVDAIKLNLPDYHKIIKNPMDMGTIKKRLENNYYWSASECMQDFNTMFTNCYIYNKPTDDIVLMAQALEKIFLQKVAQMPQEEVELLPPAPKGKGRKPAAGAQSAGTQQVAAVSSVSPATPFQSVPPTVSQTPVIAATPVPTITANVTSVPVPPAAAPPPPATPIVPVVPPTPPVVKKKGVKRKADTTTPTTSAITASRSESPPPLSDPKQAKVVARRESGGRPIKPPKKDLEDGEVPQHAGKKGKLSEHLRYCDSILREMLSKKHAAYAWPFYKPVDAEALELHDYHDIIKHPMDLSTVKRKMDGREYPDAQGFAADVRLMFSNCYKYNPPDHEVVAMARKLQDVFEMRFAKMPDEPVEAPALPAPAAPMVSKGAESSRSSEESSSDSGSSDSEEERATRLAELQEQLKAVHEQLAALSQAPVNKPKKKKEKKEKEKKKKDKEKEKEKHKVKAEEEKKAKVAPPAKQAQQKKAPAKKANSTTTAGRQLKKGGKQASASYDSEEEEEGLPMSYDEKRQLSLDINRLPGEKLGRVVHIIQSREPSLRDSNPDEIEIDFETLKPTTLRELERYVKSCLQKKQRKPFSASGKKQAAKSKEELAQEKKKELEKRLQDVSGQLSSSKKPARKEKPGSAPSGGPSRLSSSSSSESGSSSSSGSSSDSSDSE
Protein cereblon/Bromodomain-containing protein 2 (Homo sapiens), sequence (P25440 whole entry, looked up): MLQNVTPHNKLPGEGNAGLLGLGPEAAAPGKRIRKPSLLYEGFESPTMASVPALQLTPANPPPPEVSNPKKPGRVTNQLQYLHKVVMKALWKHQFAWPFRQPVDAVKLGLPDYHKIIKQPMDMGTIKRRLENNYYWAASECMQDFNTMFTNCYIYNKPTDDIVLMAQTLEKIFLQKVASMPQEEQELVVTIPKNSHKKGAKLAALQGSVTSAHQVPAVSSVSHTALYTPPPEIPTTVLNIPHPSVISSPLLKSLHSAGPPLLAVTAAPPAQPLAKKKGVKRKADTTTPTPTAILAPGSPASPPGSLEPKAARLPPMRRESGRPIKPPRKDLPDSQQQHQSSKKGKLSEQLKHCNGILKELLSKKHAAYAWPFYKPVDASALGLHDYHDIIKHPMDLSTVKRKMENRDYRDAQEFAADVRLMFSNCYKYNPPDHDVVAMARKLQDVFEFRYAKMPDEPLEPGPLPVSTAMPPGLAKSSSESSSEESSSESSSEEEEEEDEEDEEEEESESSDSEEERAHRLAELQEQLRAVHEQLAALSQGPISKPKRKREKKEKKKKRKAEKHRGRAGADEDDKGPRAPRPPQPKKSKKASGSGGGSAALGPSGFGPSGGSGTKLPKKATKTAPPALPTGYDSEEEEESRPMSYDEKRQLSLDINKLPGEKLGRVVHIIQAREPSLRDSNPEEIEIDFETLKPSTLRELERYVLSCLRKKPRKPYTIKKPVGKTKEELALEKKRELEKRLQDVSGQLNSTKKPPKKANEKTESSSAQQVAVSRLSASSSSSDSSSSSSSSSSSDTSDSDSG
Protein cereblon/Bromodomain-containing protein 2 (Homo sapiens), sequence (Q96SW2 whole entry, looked up): as the sequence (Q96SW2 whole entry partner) above

## Cc1nnc2n1-c1ccc(-c3ccc(CNCCCCc4cccc5c4CN(C4CCC(=O)NC4=O)C5=O)cc3)cc1C(Nc1ccc(Cl)cc1)CC2 (stereo not given)
[1]
  Activity: inactive
[2]
  Activity: Active
MM1.S [3]
  Activity: 14.97%
HepG2
  IC50: 17200 nM
[4]
  Activity: Dose-Dependent Effect
[5]
  Activity: inactive
[6]
  Activity: Tde
[7]
  Activity: inactive
[8]
  Activity: Active
[9]
  Activity: Dose-Dependent Effect
MM1.S [10]
  Activity: 15.21%
[11]
  Activity: Tde
MV4-11
  IC50: 6.31 nM
HeLa
  IC50: 6960 nM
[12]
  Activity: Active
MM1.S [13]
  Activity: 21.35%
MM1.S [14]
  Activity: Active
[15]
  Activity: Active
MCF7
  IC50: 230 nM
MM1.S [16]
  Activity: 13.23%
[17]
  Activity: inactive
MM1.S [18]
  Activity: 65.67%
[19]
  Activity: inactive
[20]
  Ki: 2.45 nM
[21]
  Activity: Dose-Dependent Effect
[22]
  Activity: Dose-Dependent Effect
MM1.S [23]
  Activity: 20.58%
[24]
  Ki: 12 nM
[25]
  Activity: inactive
[26]
  Activity: inactive
[27]
  Activity: Dose-Dependent Effect
MM1.S [28]
  Activity: inactive
MM1.S [29]
  Activity: 17.82%
MM1.S [30]
  Activity: Active
[31]
  Activity: Active
